Patent publication US5036080A, “(D)-6-fluoro-2,3-dihydro-2',5-dioxo-spiro[4H-1-benzo pyran-4,4'-imidazolide]-2-carboxamide compounds” (Sanwa Kagaku Kenyusho Co., Ltd., priority 1988, dated 1991)

Assays:
aldose reductase [1] = details: cited from earlier work
aldose reductase [2] = target: T1, aldose reductase (Rattus norvegicus, UniProt P07943); assay: Inhibition of aldose reductase activity (procedure of Kador and Sharpless); type: biochemical; details: water-soluble extracts of crystalline lenses from rats
T1 construct: water-soluble extracts of crystalline lenses extracted from tested rats; from tissue; host or cells: rat crystalline lens, water-soluble extract
Experimental: Using water-soluble extracts of crystalline lenses extracted from tested rats, the inhibition of these compounds was determined.

Question: Which “activity of inhibition to the aldose reductase in vitro and vivo tests, in comparison with other agents (in words)” value (aldose reductase [1]) does the source give for `NC(=O)[C@H]1CC2(NC(=O)NC2=O)c2cc(F)ccc2O1` (single isomer, unassigned) [(d)-6-fluoro-2,3-dihydro-2',5'-dioxo-spiro[4H-1-benzopyran-4,4'-imidazolidine]-2-carboxamide] here?
Answer: Its value is “remarkable activity of inhibition to the aldose reductase”.

Question: With `CC(C)(C)C(=O)OCN1C(=O)NC2(C[C@H](C(N)=O)Oc3ccc(F)cc32)C1=O` (single isomer, unassigned) [Example 6, (d)-6-Fluoro-1'-pivaloyloxymethyl-2,3-dihydro-2',5'-dioxo-spiro[4H-1-benzopyran-4,4'-imidazolidine]-2-carboxamide] as the compound, how does the IC50 (aldose reductase [2]) read?
Answer: Its IC50 is 100 µM.

Question: For `COC(=O)N1C(=O)NC2(CC(C(N)=O)Oc3ccc(F)cc32)C1=O` (single isomer, unassigned) [Example 3], which IC50 (aldose reductase [2]) is on record?
Answer: The IC50 was 0.045 µM.

Question: With `Cc1ccc(S(=O)(=O)N2C(=O)NC3(C[C@H](C(N)=O)Oc4ccc(F)cc43)C2=O)cc1` (single isomer, unassigned) [Example 16-A, (d)-6-fluoro-1'-(p-toluenesulfonyl)-2,3-dihydro-2',5'-dioxo-spiro[4H-1-benzopyran-4,4'-imidazolidine]-2-carboxamide] as the compound, how does the IC50 (aldose reductase [2]) read?
Answer: The IC50 was 100 µM.
